# Laboratory results taken from patent publication US12215133B2 (BrightGene Bio-Medical Technology Co., Ltd., priority 2021, dated 2025).
# Key:
# GLP-1 receptor = target: T1, GLP-1 receptor (Homo sapiens, UniProt P43220); assay: cAMP experiment, GLP-1 receptor (HEK293 host cell line); type: cell-based; settings: HEK293 host cells
# T1 construct: expressed in transfected cells; host or cells: HEK293 cell line
# db/db mice [1] = assay: Inhibitory effect of BG128 on hyperglycemia in db/db mice (Experimental Example 3); type: in vivo
# Method: 55 6-8 week-old SPF-grade male db/db mice were purchased from Zhejiang Vital River Experimental Animal Technology Co., Ltd.
# According to the dosage regimen in Table 7, a certain amount of Tirzepatide and BG128 were weighed and the vehicle (pH=7.0, 20 mM sodium citrate buffer) was added to formulated to the corresponding concentration. The formulation was performed once every 7 days, and the formulated mixture was sub-packaged and stored at 2° C.-8° C. in the dark.
# Before the administration, according to the body weight and fasting blood glucose, the animals were grouped into: db/db-ND group, Tirzepatide—0.15 mg/kg group, BG128—0.05 mg/kg group, BG128—0.15 mg/kg group and BG128—0.5 mg/kg group, and each group have 11 animals; and see Table 7 for details.
# The day of the first administration was recorded as d1, and the time was recorded by analogy; Tirzepatide and BG128 were administered once every three days, and the time points were d1, d4, d7, d10, d13, d16, d19, d22, d25 and d28, a total of 10 administrations; and see Table 7 for details.
# Weighing: animals were weighed before administration once every three days until the end of the experiment.
# The food intake of the animals was recorded starting at three days before the grouping for administration until the end of the experiment. The remaining amount was weighed before administration each time.
# 1) Non-fasting blood glucose determination: first administration 0 h (pre), 1 h, 2 h, 3 h, 6 h, 24 h, 48 h, 72 h;
# 2) Fasting blood glucose: the determination dates were respectively d-1 (before grouping), d7, d13, d19, d25 and d31. The animals were fasted for 6 hours, and the fasting blood glucose was determined before administration.
# 3 days after the last administration, the animals were weighed and fasted for 6 hours, and the fasting blood glucose of the animals was determined; after anesthesia, a portion of non-anticoagulated whole blood was collected through the orbital venous plexus, stood at room temperature for 30 minutes, and centrifuged at 5000 rpm for 5 minutes, the serum was separated and frozen at −80° C. for the determination of serum insulin content; a portion of anticoagulated whole blood was collected for the determination of HbA1c content. The serum insulin was determined by Elisa method.
# The data was organized in Excel 2017 and Prism6.0, and the data was expressed as Mean±SEM (standard error). One-way ANOVA was used for analysis, and Tukey was selected as the analysis method for comparing significance of difference between groups; when the two groups were compared, T-test was used for two-tailed test between the two groups. […]
# db/db mice [2] = assay: Hypoglycemic effect of BG121 and BG128 in db/db mice (Experimental Example 2); type: in vivo; settings: for glycosylated hemoglobin content in serum vs solvent control / insulin content in serum vs solvent control: 25 days after administration; for glycosylated hemoglobin content in serum vs solvent control: FIG. 6; for insulin content in serum vs solvent control: FIG. 7; for body weight vs solvent control: day 4, 7, 10, 13, 16, 19, 22, FIG. 5; for non-fasting blood glucose vs solvent control: FIG. 3
# Method: Germline: BKS mice (db/db mice); source: Gempharmatech Co., Ltd.; license key: SCXK (SU) 2018-0008; certificate number: 202100117; grade: SPF; number: 32; gender: male; age: 8 weeks (at the beginning of modeling); animal identification: ear tag.
# Feeding conditions: temperature: 22±2° C.; humidity: 40%-70%; lighting: artificial lighting simulates day and night changes; drinking water: free to drink; feed: mouse breeding feed, wherein the mice were fasted overnight before determining fasting blood sugar, and the mice were free to eat for the rest of the time.
# Formulation of BG128 (1 mg/ml) stock solution: a certain amount of BG128 was weighed, an appropriate volume of solvent (20 mM citric acid, pH 7.0) was added, and the mixture was sub-packaged at 100 μl/tube and frozen at −80° C. for later use;
# BG128 (0.0151 mg/ml, for 30 nmol/kg administration): 90 μL of the 1 mg/mL stock solution was taken and added to a 10 mL EP together with 810 μL of the solvent, the mixture was homogeneously mixed in a vortex mixer, then 5044 μL of the solvent was added, and the mixture was homogeneously mixed in a vortex mixer and used up on the same day;
# BG128 (0.0050 mg/ml, for 10 nmol/kg administration): 2 mL of BG128 ([…]) were taken, and 4 mL of the solvent was added, and the mixture was homogeneously mixed in a vortex mixer and used up on the same day.
# 32 SPF-grade male BKS-DB mice (db/db mice) were fed adaptively for 1 week. […] During the experiment, the experimenters need to observe the signs and health conditions of the experimental animals. Any abnormal manifestations of animals, such as pain, depression, decreased activity, etc., should be recorded in the original experimental records. If the abnormal manifestations of the experimental animals exceed the regulations in relevant documents for animal welfare, the animal can be euthanized after being notified.
# Modeling method: db/db mice would develop spontaneous type 2 diabetes after being fed for 6 weeks, and the mice would develop symptoms, such as obesity, insulin resistance and hyperglycemia;
# Mode of administration: it was intended to use subcutaneous injection by the clinical route of administration, the volume of administration is: 10 mL/kg, once every 3 days, for 22 consecutive days;
# Fasting blood glucose determination: according to the above-mentioned animal grouping and administration dose, the fasting blood glucose of the mice was determined two days before the first administration and the body weight was determined. […] The fasting blood glucose levels were determined on day 7, 13, 19, and 25 after the first administration (changing the bedding and fasting before the fasting blood glucose determination), and the mice were fasted;
# Non-fasting blood glucose determination: the blood glucose was determined at time points of 1, 3, 6, 24, 48, and 72 hours after the first administration;
# Body weight determination: determined twice a week;
# Food intake determination: determined twice a week.
# After 25 days of administration, blood samples were collected by picking the eyeballs, and the serum insulin and glycosylated hemoglobin contents of the mice were determined respectively.
# All reported determination data was calculated using GraphPad prism8.0 software for group mean and standard deviation.
# [3] = 0.5 mg/kg s.c. once every three days, anticoagulated whole blood, end of experiment, Mean ± SEM
# [4] = 10 nmol/kg s.c. once every 3 days
# [5] = 30 nmol/kg s.c. once every 3 days
# T1 sequence (P43220 24-463, species assumed): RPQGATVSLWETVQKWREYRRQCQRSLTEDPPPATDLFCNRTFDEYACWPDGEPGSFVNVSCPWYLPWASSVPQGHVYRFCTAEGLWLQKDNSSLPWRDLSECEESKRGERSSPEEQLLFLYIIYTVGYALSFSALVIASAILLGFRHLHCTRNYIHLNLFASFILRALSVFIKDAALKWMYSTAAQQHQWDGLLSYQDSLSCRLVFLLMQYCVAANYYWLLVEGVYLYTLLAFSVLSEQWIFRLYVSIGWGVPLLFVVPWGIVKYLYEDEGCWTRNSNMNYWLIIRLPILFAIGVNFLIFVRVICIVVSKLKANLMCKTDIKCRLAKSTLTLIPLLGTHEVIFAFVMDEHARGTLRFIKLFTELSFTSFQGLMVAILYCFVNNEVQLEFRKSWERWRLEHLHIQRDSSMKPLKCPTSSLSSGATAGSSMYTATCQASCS
compound,measurement,setting,value
CNC(CCCCNC(=O)COCCOCCOCCNC(=O)COCCOCCOCCNC(=O)CCC(NC(=O)CC(=O)O)C(=O)O)C(N)=O (centres unmarked) [BG128],EC50,GLP-1 receptor,110 pM
same,HbA1C,"db/db mice [1]; 0.15 mg/kg s.c. once every three days, anticoagulated whole blood, end of experiment, Mean ± SEM",5.31 ± 0.19
same,HbA1C,db/db mice [1]; [3],4.68 ± 0.20
same,HbA1C%,db/db mice [1]; [3],3.33 ± 0.16^abde %
same,blood sugar suppression effect (non-fasting) compared with Tirzepatide,"db/db mice [1]; within 72 h of the first administration, equal dose 0.15 mg/kg, FIG. 11",dose-dependent and better than that of positive drug Tirzepatide
same,glycosylated hemoglobin content in serum vs solvent control,db/db mice [2]; [4],no significant difference
same,insulin content in serum vs solvent control,db/db mice [2]; [4],significantly lower than that in the solvent control group
same,body weight vs solvent control,db/db mice [2]; [4],no significant difference
same,non-fasting blood glucose vs solvent control,"db/db mice [2]; 10 nmol/kg s.c., 1, 3, 6, 24, 48 and 72 h after first administration",reduce the blood glucose at each time point after the administration in a dose dependent manner
same,glycosylated hemoglobin content in serum vs solvent control,db/db mice [2]; [5],significantly lower than that in the BG121 (30 nmol/kg) administration group and the solvent control group
same,insulin content in serum vs solvent control,db/db mice [2]; [5],significantly lower than that in the solvent control group
same,body weight vs solvent control,db/db mice [2]; [5],significantly lower than that in the solvent control group and the BG121 (30 nmol/kg) administration group
same,fasting blood glucose vs solvent control,"db/db mice [2]; 30 nmol/kg s.c. once every 3 days, day 19 and 25 after first administration, FIG. 4",significantly reduce the fasting blood glucose level
same,non-fasting blood glucose vs solvent control,"db/db mice [2]; 30 nmol/kg s.c., 1, 3, 6, 24, 48 and 72 h after first administration",reduce the blood glucose at each time point after the administration in a dose dependent manner
